We go through two compounds from BindingDB's records for doi:10.1021/jm00108a008 (University of Minnesota, 1991).

Structures are written as SMILES. pKi: −log10 of the molar value.

Assay [1] in a line: Binding affinity against Opioid receptor delta 1 was measured in the guinea pig brain membranes using [3H]DADLE in the presence of 1 uM unlabeled DAMGO as radioligand.
Experiment in assay [2]: as above
The source holds these as a separate data set.

By pKi is commonly meant the Ki on a negative log10 scale, so that one unit is a factor of ten.

Take `Oc1ccc2c3c1O[C@H]1c4sc5c(c4C[C@@]4(O)C(C2)N(CC2CC2)CC[C@]314)C[C@@]1(O)C2Cc3ccc(O)c4c3[C@@]1(CCN2CC1CC1)[C@H]5O4` [bis(4-cyclopropylmethyl-12-oxa-4-azapentacyclo[9.6.1.01,13.05,17.07,18]octadeca-7(18),8,10,14-tetraene-10,17-diol)thiphene]: the pKi in assay [1] is 7.11.

For the compound `Oc1ccc2c3c1O[C@H]1C4=C(C[C@@]5(O)C(C2)N(CC2CC2)CC[C@]315)C(c1ccccc1)C1=C(O4)[C@@H]2Oc3c(O)ccc4c3[C@@]23CCN(CC2CC2)C(C4)[C@]3(O)C1` (some centres not stated) [bis(4-cyclopropylmethyl-12-oxa-4-azapentacyclo[9.6.1.01,13.05,17.07,18]octadeca-7(18),8,10,14-tetraene-10,17-diol)4-phenyl-4H-pyran], the pKi in assay [2] was 8.00.
